Reference: ChEMBL document CHEMBL1909294, “Translating clinical findings into knowledge in drug safety evaluation--drug induced liver injury prediction system (DILIps)” (PLoS Comput Biol, 2011)

Experiments:
Hepatotoxicity [1] = system: Hepatotoxicity;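 on HepSE Combined Scores: combined hepatic side effect score as listed in the training data of the Drug Induced Liver Injury Prediction System (DILIps)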;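 on HepSE cirrhosis: cirrhosis hepatic side effect score taken from the DILIps (drug-induced liver injury prediction) training set; call rule not given here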;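 on HepSE elevated liver function tests: hepatic side effect score for raised liver function tests, as recorded in the DILIps training set used for predicting drug-induced liver injury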; on HepSE hepatic failure: call rule not given here;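 on HepSE hepatic necrosis: score of hepatic side effects for hepatic necrosis, drawn from the training data of DILIps, a prediction system for drug-induced liver injury; call rule not given here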; on HepSE liver disease: call rule not given here;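 on HepSE liver fatty: hepatic side effect score for fatty liver, taken from the DILIps training set for predicting drug-induced liver injury; call rule not given here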
Hepatotoxicity [2] = system: Hepatotoxicity; remark: listed apart in the source;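 on HepSE Combined Scores: combined hepatic side effect score as listed in the training data of the Drug Induced Liver Injury Prediction System (DILIps)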;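 on HepSE cirrhosis: cirrhosis hepatic side effect score taken from the DILIps (drug-induced liver injury prediction) training set; call rule not given here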;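 on HepSE elevated liver function tests: hepatic side effect score for raised liver function tests, as recorded in the DILIps training set used for predicting drug-induced liver injury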; on HepSE hepatic failure: call rule not given here;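 on HepSE hepatic necrosis: score of hepatic side effects for hepatic necrosis, drawn from the training data of DILIps, a prediction system for drug-induced liver injury; call rule not given here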; on HepSE liver disease: call rule not given here;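 on HepSE liver fatty: hepatic side effect score for fatty liver, taken from the DILIps training set for predicting drug-induced liver injury; call rule not given here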
Hepatotoxicity [3] = system: Hepatotoxicity; remark: listed apart in the source;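 on HepSE Combined Scores: combined hepatic side effect score as listed in the training data of the Drug Induced Liver Injury Prediction System (DILIps)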;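 on HepSE cirrhosis: cirrhosis hepatic side effect score taken from the DILIps (drug-induced liver injury prediction) training set; call rule not given here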;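 on HepSE elevated liver function tests: hepatic side effect score for raised liver function tests, as recorded in the DILIps training set used for predicting drug-induced liver injury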; on HepSE hepatic failure: call rule not given here;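 on HepSE hepatic necrosis: score of hepatic side effects for hepatic necrosis, drawn from the training data of DILIps, a prediction system for drug-induced liver injury; call rule not given here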; on HepSE liver disease: call rule not given here;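 on HepSE liver fatty: hepatic side effect score for fatty liver, taken from the DILIps training set for predicting drug-induced liver injury; call rule not given here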
Hepatotoxicity [4] = system: Hepatotoxicity; remark: listed apart in the source;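 on HepSE Combined Scores: combined hepatic side effect score as listed in the training data of the Drug Induced Liver Injury Prediction System (DILIps)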;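 on HepSE cirrhosis: cirrhosis hepatic side effect score taken from the DILIps (drug-induced liver injury prediction) training set; call rule not given here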;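 on HepSE elevated liver function tests: hepatic side effect score for raised liver function tests, as recorded in the DILIps training set used for predicting drug-induced liver injury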; on HepSE hepatic failure: call rule not given here;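 on HepSE hepatic necrosis: score of hepatic side effects for hepatic necrosis, drawn from the training data of DILIps, a prediction system for drug-induced liver injury; call rule not given here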; on HepSE liver disease: call rule not given here;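 on HepSE liver fatty: hepatic side effect score for fatty liver, taken from the DILIps training set for predicting drug-induced liver injury; call rule not given here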
Hepatotoxicity [5] = system: Hepatotoxicity; remark: listed apart in the source; on HepSE hepatic failure: call rule not given here; on HepSE liver disease: call rule not given here
Hepatotoxicity [6] = system: Hepatotoxicity; remark: listed apart in the source; on HepSE hepatic failure: call rule not given here; on HepSE liver disease: call rule not given here
Hepatotoxicity [7] = system: Hepatotoxicity; remark: listed apart in the source
Hepatotoxicity [8] = system: Hepatotoxicity; remark: listed apart in the source
Hepatotoxicity [9] = system: Hepatotoxicity; remark: listed apart in the source
Hepatotoxicity [10] = system: Hepatotoxicity; remark: listed apart in the source
Hepatotoxicity [11] = system: Hepatotoxicity; remark: listed apart in the source
Hepatotoxicity [12] = system: Hepatotoxicity; remark: listed apart in the source
Hepatotoxicity [13] = system: Hepatotoxicity; remark: listed apart in the source
Hepatotoxicity [14] = system: Hepatotoxicity; remark: listed apart in the source

Structure (SMILES) | HepSE_cirrhosis (Hepatotoxicity [1]) | HepSE_elevated liver function tests (Hepatotoxicity [2]) | HepSE_liver disease (Hepatotoxicity [3]) | HepSE_liver fatty (Hepatotoxicity [4]) | HepSE_hepatic necrosis (Hepatotoxicity [5]) | HepSE_hepatic failure (Hepatotoxicity [6]) | HepSE_cholelithiasis (Hepatotoxicity [7]) | HepSE_Combined Scores (Hepatotoxicity [8]) | HepSE_liver function tests abnormal (Hepatotoxicity [9]) | HepSE_hepatitis (Hepatotoxicity [10]) | HepSE_hepatomegaly (Hepatotoxicity [11]) | HepSE_bilirubinemia (Hepatotoxicity [12]) | HepSE_jaundice (Hepatotoxicity [13]) | HepSE_cholecystitis (Hepatotoxicity [14])
CN(C)CCCN1c2ccccc2CCc2ccccc21 [IMIPRAMINE] | 0 | 0 | 0 | 0 | 0 | 0 | 0 | 1 | 0 | 0 | 0 | 0 | 1 | 0
CC(C)Cn1cnc2c(N)nc3ccccc3c21 [IMIQUIMOD] | 0 | 0 | 0 | 0 | 0 | 0 | 0 | 0 | 0 | 0 | 0 | 0 | 0 | 0
C#CC1(O)CCC2C3CCC4=CC(=O)CCC4C3C(=C)CC21CC (configuration not stated) [IMPLANON] | 0 | 0 | 0 | 0 | 0 | 0 | 0 | 0 | 0 | 0 | 0 | 0 | 0 | 0
Nc1cc(-c2ccncc2)c[nH]c1=O [INAMRINONE] | 0 | 0 | 0 | 0 | 0 | 0 | 0 | 1 | 0 | 0 | 0 | 0 | 1 | 0
CC1Cc2ccccc2N1NC(=O)c1ccc(Cl)c(S(N)(=O)=O)c1 (configuration not stated) [INDAPAMIDE] | 0 | 0 | 0 | 0 | 0 | 0 | 0 | 3 | 1 | 1 | 0 | 0 | 1 | 0
COc1ccc2c(c1)c(CC(=O)O)c(C)n2C(=O)c1ccc(Cl)cc1 [INDOMETHACIN] | 0 | 0 | 0 | 0 | 0 | 0 | 0 | 1 | 0 | 0 | 0 | 0 | 1 | 0
II [IODINE] | 0 | 0 | 0 | 0 | 0 | 0 | 0 | 1 | 0 | 1 | 0 | 0 | 0 | 0
O=C(CCCCC(=O)Nc1c(I)cc(I)c(C(=O)O)c1I)Nc1c(I)cc(I)c(C(=O)O)c1I [IODIPAMIDE] | 0 | 0 | 0 | 0 | 0 | 0 | 0 | 0 | 0 | 0 | 0 | 0 | 0 | 0
CC(=O)N(CC(O)CN(C(C)=O)c1c(I)c(C(=O)NCC(O)CO)c(I)c(C(=O)NCC(O)CO)c1I)c1c(I)c(C(=O)NCC(O)CO)c(I)c(C(=O)NCC(O)CO)c1I (configuration not stated) [IODIXANOL] | 0 | 0 | 0 | 0 | 0 | 0 | 0 | 0 | 0 | 0 | 0 | 0 | 0 | 0
CC(=O)N(CC(O)CO)c1c(I)c(C(=O)NCC(O)CO)c(I)c(C(=O)NCC(O)CO)c1I (configuration not stated) [IOHEXOL] | 0 | 0 | 0 | 0 | 0 | 0 | 0 | 0 | 0 | 0 | 0 | 0 | 0 | 0
C[C@H](O)C(=O)Nc1c(I)c(C(=O)NC(CO)CO)c(I)c(C(=O)NC(CO)CO)c1I [IOPAMIDOL] | 0 | 0 | 0 | 0 | 0 | 0 | 0 | 0 | 0 | 0 | 0 | 0 | 0 | 0
COCC(=O)Nc1c(I)c(C(=O)NCC(O)CO)c(I)c(C(=O)N(C)CC(O)CO)c1I (configuration not stated) [IOPROMIDE] | 0 | 0 | 0 | 0 | 0 | 0 | 0 | 0 | 0 | 0 | 0 | 0 | 0 | 0
CNC(=O)c1c(I)c(NC(C)=O)c(I)c(C(=O)[O-])c1I.[Na+] [IOTHALAMATE SODIUM] | 0 | 0 | 0 | 0 | 0 | 0 | 0 | 0 | 0 | 0 | 0 | 0 | 0 | 0
